# Assay: cardiovascular and respiratory function in anesthetized dogs (safety pharmacology)
# Assay type: in vivo
# Details: anesthetized Beagle dogs, three ascending doses 400, 800 and 1,200 mg/kg/day, infusion through the jugular vein
# Description: The pharmacological properties of 3-(3,4-dimethoxy-phenyl)-3-(1-oxo-1,3-dihydro-isoindol-2-yl)-propionamide, including activity comparisons with thalidomide, are characterized in in vitro studies. Studies examine the effects of 3-(3,4-dimethoxy-phenyl)-3-(1-oxo-1,3-dihydro-isoindol-2-yl)-propionamide on the production of various cytokines. In addition, a safety pharmacology study of 3-(3,4-dimethoxy-phenyl)-3-(1-oxo-1,3-dihydro-isoindol-2-yl)-propionamide is conducted in dogs and the effects of the compound on ECG parameters are examined further as part of three repeat-dose toxicity studies in primates.
# The effects of 3-(3,4-dimethoxy-phenyl)-3-(1-oxo-1,3-dihydro-isoindol-2-yl)-propionamide on cardiovascular and respiratory function are investigated in anesthetized dogs. Two groups of Beagle dogs (2/sex/group) are used. One group receives three doses of vehicle only and the other receives three ascending doses of 3-(3,4-dimethoxy-phenyl)-3-(1-oxo-1,3-dihydro-isoindol-2-yl)-propionamide (400, 800, and 1,200 mg/kg/day). In all cases, doses of 3-(3,4-dimethoxy-phenyl)-3-(1-oxo-1,3-dihydro-isoindol-2-yl)-propionamide or vehicle are successively administered via infusion through the jugular vein separated by intervals of at least 30 minutes. […]
compound,measurement,value
"COc1ccc(C(CC(N)=O)N2Cc3ccccc3C2=O)cc1OC (stereo not shown) [3-(3,4-Dimethoxy-phenyl)-3-(1-oxo-1,3-dihydro-isoindol-2-yl)-propionamide]",cardiovascular and respiratory changes compared to the vehicle control group,minimal

# Source: US20090010886A1, “Method for the Treatment of Myeloproliferative Diseases Using(+)-2-[1-(3-Ethoxy-4-Methoxyphenyl)-2- Methylsulfonylethyl]-4- Acetylaminoisoindoline-1,3- Dione” (CELGENE CORPORATION, priority 2004, published 2009)
